Patent publication US12558334B2, “Controlled nutrient delivery to pancreatic islets using a novel mesoporous silica-based nanoparticle platform” (The Board of Trustees of the Leland Stanford Junior …, priority 2019, dated 2026)

Key:
[1] = test system: pancreatic islets; experiment: Islet viability, Live/Dead assay; type: cell-based, C57BL/6 mice; conditions: day 7; glutamine 10 mM
Protocol: (§1) All mice within this study were treated in accordance with the guidelines approved by the Institutional Animal Care and Use Committee (IACUC) at Stanford University. Animals were housed under conventional conditions having access to food and water ad libitum. Pancreatic islets were isolated from C57BL/6 mice (male, 6-8-week-old, Charles River Laboratories, USA), as previously described.^9 In brief, the common bile duct was cannulated with a 30G needle and the pancreas distended with 3 mL of cold collagenase solution (Fischer Scientific, USA). The pancreas was removed and islets isolated by digesting the pancreas at 37° C. for 10 min. The islets were purified using histopaque-density gradients. […]
After 7 days of incubation with PDG-MSNPs, the viability of islets was assessed using Live/Dead and 3-(4,5-Dimethylthiazol-2-yl)-2,5-diphenyltetrazolium bromide (MTT) assays. Islets were labeled using fluorescein diacetate (FDA; for live cells (green fluorescence), Thermo Fisher Scientific, USA) and propidium iodide (PI; for dead cells (red fluorescence), Thermo Fisher Scientific, USA) as the Live/Dead staining solution. […] A minimum of 8 islets per experimental group were analyzed using Image-J/FIJI to quantify live and dead fluorescence within islets and the percentage of live islet were presented.

[2] = test system: pancreatic islets; experiment: Islet function, GSIS assay (insulin secretion); type: cell-based, C57BL/6 mice; conditions: 7 days; glutamine 10 mM; 16.7 mM glucose
Protocol: as §1
Islets supplemented with PDG-MSNPs were cultured in a humidified incubator under normal conditions (37° C./5% CO2/20% O2). After 7 days of incubation with PDG-MSNPs, the ability of islets to secrete insulin was assessed by exposing them to low glucose (i.e. basal conditions) and high glucose (i.e. stimulated conditions) media (200 μL/well). […] The supernatants were collected at the end of incubation for both basal and stimulated condition and insulin levels were quantified using a mouse insulin ELISA kit (Mercodia Developing Diagnostics, USA). […]

[3] = test system: diabetic mice transplanted with islets; experiment: Islet transplantation under kidney capsule of STZ diabetic mice, metabolic analysis; type: in vivo, C57BL/6 mice
[4] = test system: islets; conditions: reported in the literature; cited from earlier work
[5] = reported in the literature; cited from earlier work

SMILES	islet viability (Live/Dead) [1] [%]	insulin secretion following stimulation with high glucose medium [2] [ng/mL]	non-fasting blood glucose level (BGL) ([3]; day 30 post-transplantation) [mg/dL]	AUC0-20 min of IPGTT ([3]; fasting IPGTT) [mg·min/dL]	IPGTT peak incremental value following glucose injection ([3]; fasting IPGTT, glucose 2 g/kg i.p., peak at 30 min) [mg/dL]	body weight ([3]; week 4) [g]	Cyto-protective effects on islets [4]	Decreased inflammation [4]	Enhanced islet function [4]	Enhanced islet survival [4]	Maintained function of various organs [5]
NC(=O)CC[C@H](N)C(=O)O [Glutamine, glutamine]	77.1±2.6	8.1 ± 0.3	337 ± 84	26935 ± 1347	238 ± 12	20.7 ± 0.9	Yes	Yes	Yes	Yes	
CC[C@H](C)[C@H](N)C(=O)O [Isoleucine]							No	No	Yes	No	No
O=C(O)[C@@H]1CCCN1 [Proline]							No	No	Yes	No	No
N[C@@H](Cc1c[nH]c2ccccc12)C(=O)O [Tryptophan]							No	No	Yes	Yes	No
C[C@H](N)C(=O)O [Alanine]							No	No	Yes	Yes	No
N[C@@H](CCS)C(=O)O [Homocysteine]							No	No	No	No	No
NCCCC[C@H](N)C(=O)O [Lysine]							No	No	Yes	No	No
N=C(N)NCCC[C@H](N)C(=O)O [Arginine]							No	No	Yes	No	No
N[C@@H](CS)C(=O)O [Cysteine]							Yes	No	No	No	No
CSCC[C@H](N)C(=O)O [Methionine]							No	No	No	No	No
CC(C)C[C@H](N)C(=O)O [Leucine]							Yes	No	Yes	No	
